Test [1] has as its target T1, PARP1 (Homo sapiens, UniProt P09874).
T1 construct: made in house
As to the kind of experiment: Biochemical fluorescent polarization (FP) assay, displacement of PARPi-FL, PARP1. The test is classed as binding. Conditions: 20 nM protein, 3 nM PARPi-FL, 4 h at room temperature; for IC50: read-out: FP PARP1 pIC50 (converted). On the procedure:
(§1) Compounds were characterized using an assay measuring the displacement of a commercially available fluorescently labeled PARP 1/2 inhibitor (PARPi-FL, Tocris Biosciences, #6461) as exemplified in assays performed in WO2014/064149 and WO2021/013735A1. The assay was performed utilizing the following method: Compounds were dissolved in DMSO an Echo550 liquid handler was utilized to make serial dilations in the desired concentration range in Optiplate-384F plates. 100% DMSO was used for the high (with protein) and low (without protein) control samples. 20 nL of compound or DMSO alone was added to individual assay plate wells. PARP1 and PARP2 protein were expressed, purified, and diluted in assay buffer containing 50 mM Tris pH 8.0, 0.001% Triton X-100, 10 mM MgCl2, 150 mM NaCl to a final concentration of 20 nM. The PARPi-FL was then added at a final concentration of 3 nM. The assay plate was centrifuged at 1000 rpm for 1 min and incubated for 4 h at room temperature. […] [formula]

The target of test [2] is T2, PARP2 (Homo sapiens, UniProt Q9UGN5).
T2 construct: made in house
T2 sequence (Q9UGN5 whole entry): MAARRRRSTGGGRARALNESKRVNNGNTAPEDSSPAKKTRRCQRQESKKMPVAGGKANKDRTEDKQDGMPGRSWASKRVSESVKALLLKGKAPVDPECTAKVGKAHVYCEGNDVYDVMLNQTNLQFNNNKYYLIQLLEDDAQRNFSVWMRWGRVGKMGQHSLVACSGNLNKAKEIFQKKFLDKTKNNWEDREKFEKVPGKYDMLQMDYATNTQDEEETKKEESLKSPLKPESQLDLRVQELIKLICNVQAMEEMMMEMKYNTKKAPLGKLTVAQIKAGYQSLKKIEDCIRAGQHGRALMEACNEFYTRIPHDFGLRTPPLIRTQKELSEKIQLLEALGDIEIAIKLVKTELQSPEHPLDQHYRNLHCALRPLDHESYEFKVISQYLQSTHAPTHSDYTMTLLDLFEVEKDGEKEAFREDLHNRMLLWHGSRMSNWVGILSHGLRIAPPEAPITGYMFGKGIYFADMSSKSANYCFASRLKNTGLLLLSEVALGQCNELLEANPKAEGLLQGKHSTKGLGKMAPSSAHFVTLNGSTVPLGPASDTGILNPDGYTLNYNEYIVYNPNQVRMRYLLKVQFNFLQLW
The test can be described thus: Biochemical fluorescent polarization (FP) assay, displacement of PARPi-FL, PARP2. Format: binding. As to conditions: 20 nM protein, 3 nM PARPi-FL, 4 h at room temperature; read-out: FP PARP2 pIC50 (converted). The protocol: as §1

The subject of test [3] is DLD-1 BRCA2(−/−) cells. The test can be described thus: Cell growth inhibition assay (CellTiter-Glo), DLD-1 BRCA2(−/−). Format: cell-based. Conditions: Homo sapiens, DLD-1, 168 h; 200 cells/well, 7 days, CellTiter Glo 2.0; read-out: DLD-1 BRCA2(−/−) pEC50 (converted). The protocol:
(§2) Cell proliferation was measured through the cell viability assay using DLD-1 BRCA2(−/−) and parental isogenic pair and MDA-MB-436 (mutated BRCA1) cell lines. The CellTiter-Glo (CTG) based cell viability assay is designed to determine the number of viable cells in the culture because of compound effect, by quantifying ATP, which indicates the presence of metabolically active cells.
(§3) DLD-1 BRCA2(−/−) and parental isogenic pair were cultured in RPMI 1640 supplemented with […] (FBS), and […] cells were cultured in DMEM supplemented with 10% FBS. Both were cultured at 37° C. with […]. Invention compounds were distributed to the 384 well plate (Corning, 3764) using Echo acoustic liquid handler to form a 1:3 serially diluted final concentration with top dose of 10 or 30 μM. The cells were seeded into the plate in the density of 50 cells/well (DLD-1 parental), 200 cells/well (DLD-1 BRCA2−/−), or 500 cells/well (MDA-MB-436). After a short spun, the cells were cultured in a well moisturized incubator at 37° C. with 5% CO2 for 7 days without disturbance. The cell viability was measured by CellTiter Glo 2.0 assay kit (Promega, G9243), and growth inhibition rate was calculated and plotted against final compound concentration, and the data were fitted in Xfit to generate IC50 values.

Test [4] has as its system MDA-MB-436 (mutated BRCA1) cells. The test can be described thus: Cell growth inhibition assay (CellTiter-Glo), MDA-MB-436. The test is classed as cell-based. Conditions: Homo sapiens, MDA-MB-436, 168 h, 500 cells/well, 7 days, CellTiter Glo 2.0; read-out: MDA-MB-436 pEC50 (converted). The protocol:
as §2, §3
In general terms: In ATP-based viability assays light output follows the ATP content of the culture.

SMILES strings stand for the structures.

T1 sequence (P09874 whole entry): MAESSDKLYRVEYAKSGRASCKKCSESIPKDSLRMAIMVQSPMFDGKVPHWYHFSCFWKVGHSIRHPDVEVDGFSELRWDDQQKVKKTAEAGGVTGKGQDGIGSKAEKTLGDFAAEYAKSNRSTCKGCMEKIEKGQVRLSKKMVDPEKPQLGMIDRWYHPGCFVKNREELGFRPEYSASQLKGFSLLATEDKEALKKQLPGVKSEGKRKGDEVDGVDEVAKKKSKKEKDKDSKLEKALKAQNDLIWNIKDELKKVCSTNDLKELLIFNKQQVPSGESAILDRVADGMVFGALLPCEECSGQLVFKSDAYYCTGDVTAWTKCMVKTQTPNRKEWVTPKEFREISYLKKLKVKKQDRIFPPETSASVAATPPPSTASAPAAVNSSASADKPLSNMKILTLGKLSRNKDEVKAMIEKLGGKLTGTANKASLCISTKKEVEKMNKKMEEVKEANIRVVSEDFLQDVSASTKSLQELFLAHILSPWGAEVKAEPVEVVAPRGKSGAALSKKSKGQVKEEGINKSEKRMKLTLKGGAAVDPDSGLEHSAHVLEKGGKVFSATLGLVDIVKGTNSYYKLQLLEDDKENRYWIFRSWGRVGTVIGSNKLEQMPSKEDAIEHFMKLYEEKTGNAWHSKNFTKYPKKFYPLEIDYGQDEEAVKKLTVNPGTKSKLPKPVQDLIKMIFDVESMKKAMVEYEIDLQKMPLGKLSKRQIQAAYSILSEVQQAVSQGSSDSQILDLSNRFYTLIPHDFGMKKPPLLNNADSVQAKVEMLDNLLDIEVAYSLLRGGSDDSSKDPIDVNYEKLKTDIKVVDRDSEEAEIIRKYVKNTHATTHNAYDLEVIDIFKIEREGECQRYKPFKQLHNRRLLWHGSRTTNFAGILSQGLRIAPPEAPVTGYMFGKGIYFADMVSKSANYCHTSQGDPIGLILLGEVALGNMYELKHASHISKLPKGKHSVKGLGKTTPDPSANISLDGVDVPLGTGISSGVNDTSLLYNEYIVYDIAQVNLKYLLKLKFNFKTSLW

Turning to `CCc1cc2ncc(CN3CCN(c4ccc(F)nc4)CC3)cc2[nH]c1=O` [Example 34], the IC50 in test [1] is 10 nM; in test [2] it was 50100 nM. Besides, the results for the EC50 in test [3] and in test [4] were 50.1 nM and 39.8 nM, respectively.

Regarding `Cc1cc2ncc(CN3CCN(c4ccc(F)cc4C#N)CC3)cc2[nH]c1=O` [Example 35], the IC50 in test [1] was 10 nM; in test [2], 63100 nM. Further, the EC50 was 3.16 nM in test [3] and 2.51 nM in test [4].

In the case of `Cc1c(Cl)c(=O)[nH]c2cc(CN3CCN(c4ccc(C#N)cn4)CC3)cnc12` [Example 36, 6-{4-[(7-chloro-8-methyl-6-oxo-5H-1,5-naphthyridin-3-yl)methyl]piperazin-1-yl}pyridine-3-carbonitrile], the IC50 in test [1] was 5.01 nM; in test [2], 2000 nM. For the same compound, the EC50 in test [3] is 1.26 nM; in test [4] it was 1 nM.

Consider `[2H]C([2H])(c1cnc2cc(C)c(=O)[nH]c2c1)N1CCN(c2ccc(C#N)cn2)CC1` [Example 37], for which, in test [1], the “FP PARP1 pIC50” value is 8.5. Further, in test [2], the IC50 was over 100000 nM. For the same compound, the results for the EC50 in test [3] and in test [4] were 3.16 nM and 1.58 nM, respectively.

Regarding `CCc1cc2ncc(CN3CCN(c4ccc(C#N)c(F)c4)CC3)cc2[nH]c1=O` [Example 38], the IC50 in test [1] was 5.01 nM; in test [2] it was 501 nM. In addition, the EC50 in test [3] was 0.631 nM; in test [4] it was 0.501 nM.

On to `CCc1cc2ncc(CN3CCN(c4ccc(C#N)cc4OC)CC3)cc2[nH]c1=O` [Example 39], for which the IC50 in test [1] was 6.31 nM; in test [2], over 100000 nM. For the same compound, the EC50 was 2 nM in test [3] and 1.26 nM in test [4].

`CCc1cc2ncc(CN3CCN(c4ccc(F)cc4C#N)CC3)cc2[nH]c1=O` [Example 40]: the IC50 in test [1] is 6.31 nM; in test [2] it was 12600 nM. In addition, the EC50 in test [3] was 1 nM; in test [4], 0.794 nM.

In the case of `CCc1cc2ncc(CN3CCN(c4cc(F)c(C#N)cc4F)CC3)cc2[nH]c1=O` [Example 41], the IC50 was 12.6 nM in test [1] and 2000 nM in test [2]. Besides, the EC50 in test [3] was 0.794 nM; in test [4], 1 nM.

In the case of `Cc1c(C(F)F)c(=O)[nH]c2cc(CN3CCN(c4ccc(C#N)cn4)CC3)cnc12` [Example 42, 6-(4-{[7-(difluoromethyl)-8-methyl-6-oxo-5H-1,5-naphthyridin-3-yl]methyl}piperazin-1-yl)pyridine-3-carbonitrile], the IC50 in test [1] was 50.1 nM; in test [2] it was 316 nM. Also, the EC50 in test [3] was 2 nM; in test [4] it was 1 nM.

For the compound `Cc1cc2ncc(CN3CCN(c4ccc(C#N)cc4)CC3)cc2[nH]c1=O` [Example 43], the IC50 in test [1] is 5.01 nM; in test [2], 6310 nM. In addition, the EC50 in test [3] is 3.16 nM; in test [4], 2.51 nM.

Take `Cc1cc2ncc(CN3CCN(c4ccc(C#N)c(F)c4)CC3)cc2[nH]c1=O` [Example 44]: the IC50 is 10 nM in test [1] and 3160 nM in test [2]. The results for the EC50 in test [3] and in test [4] were 2.51 nM and 1.58 nM, respectively.

In the case of `N#Cc1ccc(N2CCN(Cc3cnc4cc(C(F)F)c(=O)[nH]c4c3)CC2)nc1` [Example 48, 6-(4-{[7-(difluoromethyl)-6-oxo-5H-1,5-naphthyridin-3-yl]methyl}piperazin-1-yl)pyridine-3-carbonitrile], the IC50 in test [1] was 3.98 nM; in test [2], 1260 nM. Moreover, the EC50 in test [3] and in test [4] was 1 nM in each case.

For `CCc1cc2ncc(CN3CCN(c4ccc(C#N)cc4C#N)CC3)cc2[nH]c1=O` [Example 52], the IC50 is 25.1 nM in test [1] and 12600 nM in test [2]. Also, the EC50 in test [3] was 0.794 nM; in test [4] it was 0.631 nM.

As for `Cc1cc2ncc(CN3CCN(c4ccc(C#N)nc4Cl)CC3)cc2[nH]c1=O` [Example 55], the IC50 in test [1] was 7.94 nM; in test [2], over 100000 nM. Also, the figures for the EC50 in test [3] and in test [4] were 1.26 nM and 1 nM, respectively.

As for `Cc1cc2ncc(CN3CCN(c4cc(F)c(F)cn4)CC3)cc2[nH]c1=O` [Example 58], the IC50 in test [1] is 12.6 nM; in test [2], 15800 nM. Further, the EC50 in test [3] and in test [4] was 7.94 nM each time.

In the case of `N#Cc1ccc(N2CCN(Cc3cnc4cc(C(F)F)c(=O)[nH]c4c3)CC2)cc1` [Example 59], the IC50 is 6.31 nM in test [1] and over 100000 nM in test [2]. Besides, the EC50 in test [3] is 1.26 nM; in test [4] it was 1 nM.

Regarding `N#Cc1ccc(N2CCN(Cc3cnc4cc(Br)c(=O)[nH]c4c3)CC2)nc1` [Example 60, 6-{4-[(7-bromo-6-oxo-5H-1,5-naphthyridin-3-yl)methyl]piperazin-1-yl}pyridine-3-carbonitrile], the values for the IC50 in test [1] and in test [2] were 6.31 nM and 2000 nM, respectively. For the same compound, the EC50 in test [3] was 1.58 nM; in test [4], 1.26 nM.

Take `N#Cc1ccc(N2CCN(Cc3cnc4cc(Cl)c(=O)[nH]c4c3)CC2)c(F)n1` [Example 61]: the IC50 in test [1] is 6.31 nM; in test [2] it was over 100000 nM. The EC50 in test [3] was 3.16 nM; in test [4], 2 nM.

As for `[2H]C([2H])(c1cnc2cc(C(F)F)c(=O)[nH]c2c1)N1CCN(c2ccc(C#N)cn2)CC1` [Example 63], the IC50 was 15.8 nM in test [1] and 794 nM in test [2]. Besides, the EC50 was 1.58 nM in test [3] and 1.26 nM in test [4].

Consider `CCc1cc2ncc(CN3CCC(c4ccc(C#N)cn4)CC3)cc2[nH]c1=O` [Example 64], for which the IC50 was 5.01 nM in test [1] and over 100000 nM in test [2]. The EC50 in test [3] is 5.01 nM; in test [4] it was 2 nM.

With `N#Cc1ccc(N2CCN(Cc3cnc4cc(Cl)c(=O)[nH]c4c3)CC2)cc1` [Example 66], the results for the IC50 in test [1] and in test [2] were 5.01 nM and over 100000 nM, respectively. For the same compound, the EC50 in test [3] was 2 nM; in test [4], 1.58 nM.

With `[2H]C([2H])(c1cnc2cc(CC)c(=O)[nH]c2c1)N1CCN(c2ccc(F)cc2C#N)CC1` [Example 67], the figures for the IC50 in test [1] and in test [2] were 15.8 nM and 25100 nM, respectively. Also, the EC50 in test [3] and in test [4] was 1.58 nM each time.

As for `N#Cc1ccc(N2CCN(Cc3cnc4cc(Cl)c(=O)[nH]c4c3)CC2)c(Cl)n1` [Example 77], the values for the IC50 in test [1] and in test [2] were 6.31 nM and over 100000 nM, respectively. For the same compound, the EC50 in test [3] and in test [4] was 0.794 nM in each case.

On to `Cc1cc2ncc(CN3CCN(c4ccc(C#N)nc4F)CC3)cc2[nH]c1=O` [Example 78], for which the IC50 in test [1] was 6.31 nM; in test [2], over 100000 nM. Also, the EC50 in test [3] was 3.98 nM; in test [4] it was 3.16 nM.

On to `Cc1cc2c(F)cc(CN3CCN(c4ccc(C#N)cn4)CC3)cc2[nH]c1=O` [Example 79], for which the IC50 was 10 nM in test [1] and 12600 nM in test [2]. For the same compound, the values for the EC50 in test [3] and in test [4] were 7.94 nM and 5.01 nM, respectively.

For the compound `Cc1nc2ccc(CN3CCN(c4ccc(C#N)cn4)CC3)cc2[nH]c1=O` [Example 84], the IC50 is 10 nM in test [1] and 50100 nM in test [2]. Besides, the EC50 is 6.31 nM in test [3] and 7.94 nM in test [4].
